# Laboratory results reported in ChEMBL document CHEMBL3616461, “Design, synthesis and biological evaluation of novel pyrazolo-pyrimidinones as DPP-IV inhibitors in diabetes” (Bioorg Med Chem Lett, 2015).
# How the values were obtained:
# Dipeptidyl peptidase 4 = Dipeptidyl peptidase 4 (Homo sapiens, UniProt P27487); assay: Inhibition of human recombinant DPP-4 using Gly-pro-p-nitroanilide as substrate assessed as formation of p-nitroaniline after 30 mins by colorimetric assay
# [1] = Cytotoxicity against rat macrophages by MTS/PMS assay; format: cell-based; conditions: macrophage
# Rattus norvegicus [2] = assay: Antidiabetic activity in high-fat-diet and low dose streptozotocin-induced diabetic Wistar rat assessed as blood glucose level at 50 mg/kg, po after 15 days (reference value: 515 mg/dl); format: functional
# Rattus norvegicus [3] = assay: Antidiabetic activity in high-fat-diet and low dose streptozotocin-induced diabetic Wistar rat assessed as blood glucose level at 10 mg/kg, po after 15 days (reference value: 515 mg/dl); format: functional
# Chain of Dipeptidyl peptidase 4 (P27487 whole entry): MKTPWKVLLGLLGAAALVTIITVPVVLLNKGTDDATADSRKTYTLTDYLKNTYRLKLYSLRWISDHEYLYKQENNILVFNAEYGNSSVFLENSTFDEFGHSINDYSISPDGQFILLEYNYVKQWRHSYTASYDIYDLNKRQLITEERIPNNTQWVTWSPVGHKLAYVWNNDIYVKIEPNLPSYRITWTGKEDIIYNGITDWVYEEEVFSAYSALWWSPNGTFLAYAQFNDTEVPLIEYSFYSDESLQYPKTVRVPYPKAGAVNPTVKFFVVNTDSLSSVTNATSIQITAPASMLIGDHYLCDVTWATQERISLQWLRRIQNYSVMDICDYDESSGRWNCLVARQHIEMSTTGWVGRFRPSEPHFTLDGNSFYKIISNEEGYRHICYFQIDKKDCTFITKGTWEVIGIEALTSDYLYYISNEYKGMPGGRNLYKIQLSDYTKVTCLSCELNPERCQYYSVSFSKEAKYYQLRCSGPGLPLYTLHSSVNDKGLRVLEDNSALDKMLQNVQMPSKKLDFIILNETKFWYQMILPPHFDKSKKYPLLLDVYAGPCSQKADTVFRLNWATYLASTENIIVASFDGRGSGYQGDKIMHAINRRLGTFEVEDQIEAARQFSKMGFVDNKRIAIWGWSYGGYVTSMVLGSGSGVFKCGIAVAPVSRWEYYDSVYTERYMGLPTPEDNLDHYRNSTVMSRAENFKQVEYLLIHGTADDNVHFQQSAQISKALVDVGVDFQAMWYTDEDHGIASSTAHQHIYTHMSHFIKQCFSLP
Structure (SMILES),IC50 (Dipeptidyl peptidase 4),Activity [1],Activity (Rattus norvegicus [2]) [mg/dL],Activity (Rattus norvegicus [3]) [mg/dL]
Cc1cc(C)c(-n2c(C)nc3c(cnn3-c3ccccc3)c2=O)c(C)c1,,Non-toxic,162.6,
Cc1nc2c(cnn2-c2ccccc2)c(=O)n1-c1ccccn1,,Non-toxic,,
Cc1nc2c(cnn2-c2ccccc2)c(=O)n1-c1ncccn1,,Non-toxic,,
Cc1ccnc(-n2c(C)nc3c(cnn3-c3ccccc3)c2=O)c1,,Non-toxic,198.5,
Cc1nc2c(cnn2-c2ccccc2)c(=O)n1-c1ccc(Br)cn1,,Non-toxic,,
COc1ccc(-n2ncc3c(=O)n(-c4cc(C)ccn4)c(C)nc32)cc1,,Non-toxic,,
COc1ccc(-n2ncc3c(=O)n(-c4ccc([N+](=O)[O-])cn4)c(C)nc32)cc1,Not Active,Non-toxic,,
COc1ccc(-n2ncc3c(=O)n(-c4nc(-c5ccc(Cl)cc5)cs4)c(C)nc32)cc1,,Non-toxic,,
CCOC(=O)c1sc(-n2c(C)nc3c(cnn3-c3ccccc3)c2=O)c(C(=O)OCC)c1C,Not Active,Non-toxic,,
CCOC(=O)c1sc(-n2c(C)nc3c(cnn3-c3ccc(OC)cc3)c2=O)c(C(=O)OCC)c1C,Not Active,Non-toxic,,
O=C(Nc1ccc(F)cc1)c1cnn(-c2ccccc2)c1NC(=O)C(F)(F)F,,Non-toxic,193.2,
O=C(Nc1ccc(Cl)cc1)c1cnn(-c2ccccc2)c1NC(=O)C(F)(F)F,Not Active,Non-toxic,,
CC(=O)Nc1c(C(=O)Nc2ccc(Br)cn2)cnn1-c1ccccc1,Not Active,Non-toxic,,
CC(=O)Nc1c(C(=O)Nc2nc(-c3ccc(Cl)cc3)cs2)cnn1-c1ccccc1,Not Active,Non-toxic,,
CC(=O)Nc1c(C(=O)Nc2ccccn2)cnn1-c1ccccc1,Not Active,Non-toxic,,
N[C@@H](CC(=O)N1CCn2c(nnc2C(F)(F)F)C1)Cc1cc(F)c(F)cc1F [SITAGLIPTIN],,Non-toxic,,136.4

# Continued, in another order:
IC50 (Dipeptidyl peptidase 4),Structure (SMILES),Activity [1],Activity (Rattus norvegicus [2]) [mg/dL],Activity (Rattus norvegicus [3]) [mg/dL]
Not Active,Cc1nc2c(cnn2-c2ccccc2)c(=O)n1-c1ccccc1,Non-toxic,,
Not Active,Cc1nc2c(cnn2-c2ccccc2)c(=O)n1-c1ccc(F)cc1,Non-toxic,,
Not Active,CCc1ccc(-n2c(C)nc3c(cnn3-c3ccccc3)c2=O)cc1,Non-toxic,,
Not Active,COc1ccc(-n2ncc3c(=O)n(-c4ccc(F)cc4)c(C)nc32)cc1,Non-toxic,,
Not Active,Cc1nc2c(cnn2-c2ccccc2)c(=O)n1Cc1ccccc1,Non-toxic,,
Not Active,Cc1nc2c(cnn2-c2ccccc2)c(=O)n1-c1ccc(F)cc1F,Non-toxic,,
Not Active,Cc1nc2c(cnn2-c2ccccc2)c(=O)n1-c1ccc([N+](=O)[O-])cn1,Non-toxic,,
Not Active,COc1ccc(-n2ncc3c(=O)n(-c4ccccn4)c(C)nc32)cc1,Non-toxic,,
Not Active,COc1ccc(-n2ncc3c(=O)n(-c4ccc(Br)cn4)c(C)nc32)cc1,Non-toxic,,
Not Active,Cc1nc2c(cnn2-c2ccccc2)c(=O)n1-c1cccc(Cl)c1,Non-toxic,,
